# Tests used:
# Type in all cases: cell-based
# ZR-75-1 = experiment: Cell proliferation assay ZR-75-1; conditions: Homo sapiens, Breast, 72 hours, read-out: IC50 antiproliferative activity
# Description: (§1) Growth inhibition was accessed by adenosine triphosphate (ATP) content assay using Promega CellTiter-Glo kit. Promega CellTiter-Glo kit is an ATP monitoring system based on firefly luciferase. Briefly, 16 μl of mammalian cell lysis and substrate solution was added to 84 µl of culture medium per well to lyse the cells and stabilize the ATP. The mixture was shaken and incubated for 30 minutes and subsequently the luminescence was measured. IC50 values were calculated using PRISM software (GraphPad Software) with sigmoidal dose-response curve fitting.
# Su-DHL4 = experiment: Cell proliferation assay Su-DHL4; conditions: Homo sapiens, SU-DHL-4, B-Cell Lymphoma, 72 hours, read-out: IC50 antiproliferative activity
# Description: as §1
# T47D = experiment: Cell proliferation assay T47D; conditions: Homo sapiens, Breast, 72 hours, read-out: IC50 antiproliferative activity
# Description: as §1
# SW1990 = experiment: Cell proliferation assay SW1990; conditions: Homo sapiens, Pancreas, 72 hours, read-out: IC50 antiproliferative activity
# Description: as §1
# U937 = experiment: Cell proliferation assay U937; conditions: Homo sapiens, U-937, AML, 72 hours, read-out: IC50 antiproliferative activity
# Description: as §1
# CFPAC-1 = experiment: Cell proliferation assay CFPAC-1; conditions: Homo sapiens, Pancreas, 72 hours, read-out: IC50 antiproliferative activity
# Description: as §1
# H292 = experiment: Cell proliferation assay H292; conditions: Homo sapiens, NCI-H292, NSCLC, 72 hours, read-out: IC50 antiproliferative activity
# Description: as §1
# RL = experiment: Cell proliferation assay RL; conditions: Homo sapiens, B-Cell Lymphoma, 72 hours, read-out: IC50 antiproliferative activity
# Description: as §1
# H460 = experiment: Cell proliferation assay H460; conditions: Homo sapiens, NCI-H460, NSCLC, 72 hours, read-out: IC50 antiproliferative activity
# Description: as §1
# T-84 = experiment: Cell proliferation assay T-84; conditions: Homo sapiens, T84, Colon, 72 hours, read-out: IC50 antiproliferative activity
# Description: as §1
# MCF-7 = experiment: Cell proliferation assay MCF-7; conditions: Homo sapiens, MCF7, Breast, 72 hours, read-out: IC50 antiproliferative activity
# Description: as §1
# MDA-MB-361 = experiment: Cell proliferation assay MDA-MB-361; conditions: Homo sapiens, Breast, 72 hours, read-out: IC50 antiproliferative activity
# Description: as §1
# RPMI-8226 = experiment: Cell proliferation assay RPMI-8226; conditions: Homo sapiens, Multiple Myeloma, 72 hours, read-out: IC50 antiproliferative activity
# Description: as §1
# Pfeiffer = experiment: Cell proliferation assay Pfeiffer; conditions: Homo sapiens, B-Cell Lymphoma, 72 hours, read-out: IC50 antiproliferative activity
# Description: as §1
# A549 = experiment: Cell proliferation assay A549; conditions: Homo sapiens, NSCLC, 72 hours, read-out: IC50 antiproliferative activity
# Description: as §1
# Granta 519 = experiment: Cell proliferation assay Granta 519; conditions: Homo sapiens, B-Cell Lymphoma, 72 hours, read-out: IC50 antiproliferative activity
# Description: as §1
# THP-1 = experiment: Cell proliferation assay THP-1; conditions: Homo sapiens, AML, 72 hours, read-out: IC50 antiproliferative activity
# Description: as §1
# MDA-MB-231 = experiment: Cell proliferation assay MDA-MB-231; conditions: Homo sapiens, Breast, 72 hours, read-out: IC50 antiproliferative activity
# Description: as §1
# H358 = experiment: Cell proliferation assay H358; conditions: Homo sapiens, NCI-H358, NSCLC, 72 hours, read-out: IC50 antiproliferative activity
# Description: as §1
# MiaPaca2 = experiment: Cell proliferation assay MiaPaca2; conditions: Homo sapiens, MIA PaCa-2, Pancreas, 72 hours, read-out: IC50 antiproliferative activity
# Description: as §1
# Calu6 = experiment: Cell proliferation assay Calu6; conditions: Homo sapiens, Calu-6, NSCLC, 72 hours, read-out: IC50 antiproliferative activity
# Description: as §1
# MDA-MB-453 = experiment: Cell proliferation assay MDA-MB-453; conditions: Homo sapiens, Breast, 72 hours, read-out: IC50 antiproliferative activity
# Description: as §1
# HuT78 = experiment: Cell proliferation assay HuT78; conditions: Homo sapiens, T-Cell Lymphoma, 72 hours, read-out: IC50 antiproliferative activity
# Description: as §1
# MJ = experiment: Cell proliferation assay MJ; conditions: Homo sapiens, T-Cell Lymphoma, 72 hours, read-out: IC50 antiproliferative activity
# Description: as §1
# CaPan2 = experiment: Cell proliferation assay CaPan2; conditions: Homo sapiens, Capan-2, Pancreas, 72 hours, read-out: IC50 antiproliferative activity
# Description: as §1
# PANC-1 = experiment: Cell proliferation assay PANC-1; conditions: Homo sapiens, Pancreas, 72 hours, read-out: IC50 antiproliferative activity
# Description: as §1
# HCT116 = experiment: Cell proliferation assay HCT116; conditions: Homo sapiens, HCT-116, Colon, 72 hours, read-out: IC50 antiproliferative activity
# Description: as §1
# SKBr3 = experiment: Cell proliferation assay SKBr3; conditions: Homo sapiens, SK-BR-3, Breast, 72 hours, read-out: IC50 antiproliferative activity
# Description: as §1
# WiDr = experiment: Cell proliferation assay WiDr; conditions: Homo sapiens, Colon, 72 hours, read-out: IC50 antiproliferative activity
# Description: as §1
# SWI-116 = experiment: Cell proliferation assay SWI-116; conditions: Homo sapiens, Colon, 72 hours, read-out: IC50 antiproliferative activity
# Description: as §1
# Daudi = experiment: Cell proliferation assay Daudi; conditions: Homo sapiens, B-Cell Lymphoma, 72 hours, read-out: IC50 antiproliferative activity
# Description: as §1
# UACC-893 = experiment: Cell proliferation assay UACC-893; conditions: Homo sapiens, Breast, 72 hours, read-out: IC50 antiproliferative activity
# Description: as §1
# MV-4-11 = experiment: Cell proliferation assay MV-4-11; conditions: Homo sapiens, MV4-11, AML, 72 hours, read-out: IC50 antiproliferative activity
# Description: as §1
# ARH77 = experiment: Cell proliferation assay ARH77; conditions: Homo sapiens, ARH-77, Multiple Myeloma, 72 hours, read-out: IC50 antiproliferative activity
# Description: as §1
# HH = experiment: Cell proliferation assay HH; conditions: Homo sapiens, T-Cell Lymphoma, 72 hours, read-out: IC50 antiproliferative activity
# Description: as §1
# HCC1500 = experiment: Cell proliferation assay HCC1500; conditions: Homo sapiens, Breast, 72 hours, read-out: IC50 antiproliferative activity
# Description: as §1
# MEG-01 = experiment: Cell proliferation assay MEG-01; conditions: Homo sapiens, CML, 72 hours, read-out: IC50 antiproliferative activity
# Description: as §1
# SW403 = experiment: Cell proliferation assay SW403; conditions: Homo sapiens, SW-403, Colon, 72 hours, read-out: IC50 antiproliferative activity
# Description: as §1
SMILES,IC50 (ZR-75-1) [nM],IC50 (Su-DHL4) [nM],IC50 (T47D) [nM],IC50 (SW1990) [nM],IC50 (U937) [nM],IC50 (CFPAC-1) [nM],IC50 (H292) [nM],IC50 (RL) [nM],IC50 (H460) [nM],IC50 (T-84) [nM],IC50 (MCF-7) [nM],IC50 (MDA-MB-361) [nM],IC50 (RPMI-8226) [nM],IC50 (Pfeiffer) [nM],IC50 (A549) [nM],IC50 (Granta 519) [nM],IC50 (THP-1) [nM],IC50 (MDA-MB-231) [nM],IC50 (H358) [nM],IC50 (MiaPaca2) [nM],also measured
"COc1ccc(-c2nc(N3CCOCC3)c3sc(CN(C)c4ncc(C(=O)NO)cn4)cc3n2)cn1 [Compound 1, N-hydroxy-2-(((2-(6-methoxypyridin-3-yl)-4-morpholinothieno[3,2-d]pyrimidin-6-yl)methyl)(methyl)amino)pyrimidine-5-carboxamide]",10 to 100,< 10,10 to 100,< 10,< 10,10 to 100,< 10,< 10,10 to 100,10 to 100,< 10,< 10,< 10,< 10,10 to 100,< 10,10 to 100,10 to 100,< 10,10 to 100,IC50 (Calu6): 10 to 100 nM; IC50 (MDA-MB-453): < 10 nM; IC50 (HuT78): < 10 nM; IC50 (MJ): < 10 nM; IC50 (CaPan2): 10 to 100 nM; IC50 (PANC-1): 10 to 100 nM; IC50 (HCT116): < 10 nM; IC50 (SKBr3): 10 to 100 nM; IC50 (WiDr): 10 to 100 nM; IC50 (SWI-116): < 10 nM; IC50 (Daudi): 10 to 100 nM; IC50 (UACC-893): 10 to 100 nM; IC50 (MV-4-11): < 10 nM; IC50 (ARH77): < 10 nM; IC50 (HH): < 10 nM; IC50 (HCC1500): < 10 nM; IC50 (MEG-01): < 10 nM; IC50 (SW403): < 10 nM
"CS(=O)(=O)N1CCN(Cc2cc3nc(-c4cccc5[nH]ncc45)nc(N4CCOCC4)c3s2)CC1 [GDC-0941, reference compound]",100 to 1000,100 to 1000,> 10000,> 10000,1000 to 10000,> 10000,1000 to 10000,1000 to 10000,> 10000,1000 to 10000,100 to 1000,100 to 1000,> 10000,100 to 1000,1000 to 10000,> 10000,1000 to 10000,> 10000,1000 to 10000,> 10000,IC50 (Calu6): > 10000 nM; IC50 (MDA-MB-453): 100 to 1000 nM; IC50 (HuT78): 100 to 1000 nM; IC50 (MJ): > 10000 nM; IC50 (CaPan2): > 10000 nM; IC50 (PANC-1): 1000 to 10000 nM; IC50 (HCT116): 1000 to 10000 nM; IC50 (SKBr3): > 10000 nM; IC50 (WiDr): > 10000 nM; IC50 (SWI-116): > 10000 nM; IC50 (Daudi): > 10000 nM; IC50 (UACC-893): 1000 to 10000 nM; IC50 (MV-4-11): 1000 to 10000 nM; IC50 (ARH77): > 10000 nM; IC50 (HH): 100 to 1000 nM; IC50 (HCC1500): > 10000 nM; IC50 (MEG-01): > 10000 nM; IC50 (SW403): > 10000 nM
